Measurements as given in PMC9346598 (The Journal of Poultry Science, 2022).

Key:
chicken GPR120 (cGPR120) [1] = target: T1, chicken GPR120 (cGPR120) (Gallus gallus, UniProt A0A8V0ZCZ6); experiment: Fura-2 Ca2+ imaging in transfected HEK293T cells, Hill fit; type: cell-based
T1 sequence (A0A8V0ZCZ6 1-362): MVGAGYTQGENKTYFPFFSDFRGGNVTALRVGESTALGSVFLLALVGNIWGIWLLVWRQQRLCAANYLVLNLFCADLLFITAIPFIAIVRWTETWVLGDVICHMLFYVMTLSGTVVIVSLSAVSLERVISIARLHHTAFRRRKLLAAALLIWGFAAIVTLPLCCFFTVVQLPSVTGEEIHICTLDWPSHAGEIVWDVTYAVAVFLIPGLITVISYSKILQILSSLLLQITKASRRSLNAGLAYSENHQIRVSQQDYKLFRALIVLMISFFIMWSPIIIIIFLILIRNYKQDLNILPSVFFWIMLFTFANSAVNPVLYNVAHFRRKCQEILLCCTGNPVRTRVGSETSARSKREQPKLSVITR

chicken GPR120 (cGPR120) [2] = target: T1, chicken GPR120 (cGPR120); experiment: as above; type: cell-based; details: agonist, pH 7.4, about 37 C

Question: For `CCCCC/C=C\C/C=C\C/C=C\C/C=C\CCCC(=O)O` [AA, arachidonic acid], which EC50 (chicken GPR120 (cGPR120) [1]) is on record?
Answer: Its EC50 is 1040 µM.

Question: `CC/C=C\C/C=C\C/C=C\C/C=C\C/C=C\C/C=C\CCC(=O)O` [DHA, docosahexaenoic acid] was tested. Which “Fura-2 Ca2+ imaging in transfected HEK293T cells, Hill fit” value (from here on “Fura-2 Ca2+ imaging”) (chicken GPR120 (cGPR120) [2]; 0.1-3 mmol/L in well, stock in ethanol) did it give?
Answer: Its value is “EPA and DHA activated cGPR120 in a dose-dependent manner”.

Question: For `CC/C=C\C/C=C\C/C=C\C/C=C\C/C=C\CCCC(=O)O` [EPA, eicosapentaenoic acid], which “Fura-2 Ca2+ imaging” value (chicken GPR120 (cGPR120) [2]; 0.1-7 mmol/L in well, stock in ethanol) is on record?
Answer: Its value is “EPA and DHA activated cGPR120 in a dose-dependent manner”.

Question: How did the “Fura-2 Ca2+ imaging” value (chicken GPR120 (cGPR120) [2]; 1-10 mmol/L in well, stock in DMSO) turn out when `CCCCC/C=C\C/C=C\CCCCCCCC(=O)O` [LA, linoleic acid] was run?
Answer: The value was “cGPR120 cells were activated in a dose-dependent manner by LA”.
